Results from US20220087996A1, “Histone acetylase p300 inhibitor and use thereof” (HINOVA PHARMACEUTICALS INC., priority 2018, published 2022).
Like-named read-outs stand apart in the source and are kept apart here.

What was measured:
histone acetylase p300 = molecular target: T1, histone acetylase p300 (Homo sapiens, UniProt Q09472); assay: Inhibitory activity on histone acetylase p300 (radioisotope FlashPlate); assay type: biochemical; details: enzyme 0.2 nM, peptide substrate 600 nM, [3H]-Ac-CoA 250 nM; read-out: IC50 against P300
T1 construct: purchased BPS
T1 sequence (Q09472 whole entry): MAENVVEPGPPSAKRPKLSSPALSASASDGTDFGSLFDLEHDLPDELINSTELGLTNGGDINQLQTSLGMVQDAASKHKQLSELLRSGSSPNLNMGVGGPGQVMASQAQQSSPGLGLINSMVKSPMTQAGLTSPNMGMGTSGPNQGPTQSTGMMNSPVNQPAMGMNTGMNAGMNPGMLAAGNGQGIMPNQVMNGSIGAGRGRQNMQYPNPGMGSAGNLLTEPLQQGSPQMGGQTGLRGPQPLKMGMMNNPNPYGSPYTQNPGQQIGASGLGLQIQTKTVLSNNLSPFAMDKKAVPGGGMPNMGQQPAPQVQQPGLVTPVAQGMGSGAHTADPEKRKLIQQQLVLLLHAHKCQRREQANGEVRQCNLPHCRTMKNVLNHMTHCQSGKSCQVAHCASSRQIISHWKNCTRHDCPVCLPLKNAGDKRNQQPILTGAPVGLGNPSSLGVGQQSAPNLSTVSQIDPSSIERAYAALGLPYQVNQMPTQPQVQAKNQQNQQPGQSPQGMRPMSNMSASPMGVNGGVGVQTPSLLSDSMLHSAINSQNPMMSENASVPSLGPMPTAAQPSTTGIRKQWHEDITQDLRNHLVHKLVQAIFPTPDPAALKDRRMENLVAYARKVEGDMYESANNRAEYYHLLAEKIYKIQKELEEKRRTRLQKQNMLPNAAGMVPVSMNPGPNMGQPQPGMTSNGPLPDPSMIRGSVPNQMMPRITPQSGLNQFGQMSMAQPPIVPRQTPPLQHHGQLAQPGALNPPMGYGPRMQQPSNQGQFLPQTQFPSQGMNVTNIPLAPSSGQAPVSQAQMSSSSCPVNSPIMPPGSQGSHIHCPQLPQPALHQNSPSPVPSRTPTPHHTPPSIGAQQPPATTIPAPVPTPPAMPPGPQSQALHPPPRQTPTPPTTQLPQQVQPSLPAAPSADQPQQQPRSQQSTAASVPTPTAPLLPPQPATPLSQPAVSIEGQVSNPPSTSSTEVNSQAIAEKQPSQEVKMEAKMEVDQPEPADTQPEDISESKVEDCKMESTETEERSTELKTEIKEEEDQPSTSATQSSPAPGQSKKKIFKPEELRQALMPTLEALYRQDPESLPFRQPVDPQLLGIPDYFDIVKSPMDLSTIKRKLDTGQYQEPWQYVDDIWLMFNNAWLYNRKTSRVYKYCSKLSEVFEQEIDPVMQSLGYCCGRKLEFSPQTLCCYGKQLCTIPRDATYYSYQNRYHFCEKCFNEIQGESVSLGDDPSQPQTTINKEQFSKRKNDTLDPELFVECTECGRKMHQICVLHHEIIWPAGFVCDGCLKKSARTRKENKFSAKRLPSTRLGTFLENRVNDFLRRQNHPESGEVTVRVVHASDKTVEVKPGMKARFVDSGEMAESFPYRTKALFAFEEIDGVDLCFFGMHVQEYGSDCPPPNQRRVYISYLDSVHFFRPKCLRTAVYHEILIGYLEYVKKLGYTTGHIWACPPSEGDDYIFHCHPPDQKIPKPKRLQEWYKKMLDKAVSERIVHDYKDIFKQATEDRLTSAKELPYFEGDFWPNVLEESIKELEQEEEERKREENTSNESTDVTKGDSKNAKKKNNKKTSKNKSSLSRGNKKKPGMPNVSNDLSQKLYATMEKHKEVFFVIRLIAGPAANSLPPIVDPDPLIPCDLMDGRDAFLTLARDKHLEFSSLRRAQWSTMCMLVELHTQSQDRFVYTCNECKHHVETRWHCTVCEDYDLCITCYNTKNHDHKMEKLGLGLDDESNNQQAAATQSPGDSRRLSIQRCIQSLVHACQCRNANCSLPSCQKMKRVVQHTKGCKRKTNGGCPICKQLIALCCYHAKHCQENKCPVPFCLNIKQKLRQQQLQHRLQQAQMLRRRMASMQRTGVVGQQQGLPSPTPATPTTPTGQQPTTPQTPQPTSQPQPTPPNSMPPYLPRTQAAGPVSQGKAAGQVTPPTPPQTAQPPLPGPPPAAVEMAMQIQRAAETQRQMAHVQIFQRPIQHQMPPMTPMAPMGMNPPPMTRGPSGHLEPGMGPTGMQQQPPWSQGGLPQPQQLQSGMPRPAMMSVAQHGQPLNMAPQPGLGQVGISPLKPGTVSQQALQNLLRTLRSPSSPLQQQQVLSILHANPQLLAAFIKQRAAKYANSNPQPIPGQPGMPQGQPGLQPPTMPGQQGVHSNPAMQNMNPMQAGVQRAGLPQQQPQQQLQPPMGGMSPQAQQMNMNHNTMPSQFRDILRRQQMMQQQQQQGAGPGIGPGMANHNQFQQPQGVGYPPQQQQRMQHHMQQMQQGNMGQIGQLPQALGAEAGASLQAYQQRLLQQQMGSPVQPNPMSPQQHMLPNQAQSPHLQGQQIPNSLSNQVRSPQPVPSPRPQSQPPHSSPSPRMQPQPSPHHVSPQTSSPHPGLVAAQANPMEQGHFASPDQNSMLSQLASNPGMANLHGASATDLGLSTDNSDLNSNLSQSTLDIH
Source text: Using the radioisotope FlashPlate technology, the half inhibitory concentration (IC50) of the compound according to the present invention was detected against histone acetylase p300 (purchased from BPS). […] Under the catalysis of histone acetylase p300, [3H]—Ac group in the isotope-labeled [3H]-Ac-CoA was transferred to the biotinylated histone polypeptide substrate (purchased from GL Biochem Ltd.), and then the biotinylated histone peptide substrate bound to the streptavidin on the FlashPlate board, so that the isotope was close enough to the FlashPlate board. Thus, the radiation energy of isotope could convert the scintillation fluid coated on the FlashPlate board into photons, that was able to be detected. Detailed procedures were as follows:
• 1× reaction buffer: 50 mM Tris-HCl, pH 7.5; 0.01% Tween-20 • Reaction stop solution: 750 μM Ac-CoA solution
Each test compound was dissolved into 10 mM with 100% DMSO, and then each compound was diluted to the desired concentration in Echo 384-well plate. […] 200 nl of 100% DMSO was transferred into the well as the negative control.
p300 was added to 1× reaction buffer to form a 2× enzyme solution (the final concentration of enzyme being 0.2 nM).
The peptide substrate and [3H]-Ac-CoA were added to the 1-fold reaction buffer, to form a 2-fold substrate solution (the final concentration of the substrate being 600 nM and 250 nM, respectively).
10 μl of 2-fold enzyme solution was added to the wells of 384-well reaction plate. […] The plate was centrifuged at 1000 rpm for 1 min and incubated at room temperature for 15 min.
10 μl of 2-fold substrate solution was added to each well of 384-well reaction plate. The plate was centrifuged at 1000 rpm for 1 min, and then reacted at 25° C. for 60 min.
10 μl of reaction stop solution was added to each well of 384-well reaction plate to stop the reaction. 25 μL solution was collected from each well of the test plate and transferred to Flashplate, that was placed at room temperature for 1 h. Then, Flashplate plate was washed three times with 0.1% Tween-20 solution.
4) Reading Data with MicroBeta 2
The data were copied from Microbeta 2. […] The maximum value is the conversion rate of the control DMSO, and the minimum value is the conversion rate of the control without enzyme activity.
The data were imported into Graph Pad Prism5, and the formula “log(inhibitor) vs. response−Variable slope” was used to perform curve fitting, to obtain the half inhibitory concentration (IC50).

CWR22RV1 cells = assay: Inhibition of proliferation of CWR22RV1 cells (CCK-8); assay type: cell-based, human; details: 6 days culture
How it was run: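 Proliferation read-out was CCK-8 absorbance at 450 nm after 2.5 h, following 6-day culture with compound. Each well held 1500 CWR22RV1 cells; the 3-fold, 9-point series started at a final 10 μM in 0.1% DMSO. Dose-response-inhibition fit gave the IC50.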

[1] = Homo sapiens, CWR22Rv1, 144 h, read-out: IC50 against CWR22RV1 cells
[2] = read-out: IC50 against CWR22RV1 cells
[3] = Homo sapiens, CWR22Rv1, 144 h, read-out: IC50 against CWR22RV1 cells (text)

Row | IC50 (histone acetylase p300) | Compound | IC50 (CWR22RV1 cells; [1]) | IC50 (CWR22RV1 cells; [2]) | IC50 (CWR22RV1 cells; [3])
1 | 3.6 µM | CNC(=O)Nc1ccc2c(c1)CC[C@@]21OC(=O)N(CC(=O)N2[C@H](C)CC[C@@H]2c2ccc(F)cc2)C1=O [Example 17, 1-((R)-3′-(2-((2R,5R)-2-(4-fluorophenyl)-5-methylpyrrolidin-1-yl)-2-oxoethyl)-2′,4′-dioxo-2,3-dihydrospiro[indene-1,5′-oxazolidine]-5-yl)-3-methylurea] | > 2 µM | – | –
2 | 0.017 µM | CNC(=O)Nc1ccc2c(c1)CC[C@@]21OC(=O)N(CC(=O)N2C(c3ccc(F)cc3C)CC[C@H]2C)C1=O (stereo partly shown) [Example 21] | – | ≤ 0.5 µM | –
3 | 0.0031 µM | CC[C@H]1CC[C@@H](c2ccc(F)cc2)N1C(=O)CN1C(=O)O[C@@]2(CCc3cc(NC(=O)NC)ccc32)C1=O [Example 43, 1-((R)-3′-(2-((2S,5S)-2-ethyl-5-(4-fluorophenyl)pyrrolidin-1-yl)-2-oxoethyl)-2′,4′-dioxo-2,3-dihydrospiro[indene-1,5′-oxazolidine]-5-yl)-3-methylurea] | ≤ 0.5 µM | – | ≤ 0.5 µM
4 | 0.0075 µM | CNC(=O)Nc1ccc2c(c1)CC[C@@]21OC(=O)N(CC(=O)N2C(C)CCC2C2CCCCC2)C1=O (stereo partly drawn) [Example 96, 1-((1R)-3′-(2-(2-cyclohexyl-5-methylpyrrolidin-1-yl)-2-oxoethyl)-2′,4′-dioxo-2,3-dihydrospiro[indene-1,5′-oxazolidine]-5-yl)-3-methylurea] | ≤ 0.5 µM | – | –
5 | 0.026 µM | CNC(=O)Nc1ccc2c(c1)C1(CC1)CC21OC(=O)N(CC(=O)N(Cc2ccc(F)cc2)[C@@H](C)C(F)(F)F)C1=O (stereo partly drawn) [Example 98, 2-(5-(3-methylureido)-2′,4′-dioxo-2,3-dihydrospiro[cyclopropane-indene-1,5′-oxazole]-3′-yl)-N-(4-fluorobenzyl)-N—((S)-1,1,1-trifluoropropan-2-yl)acetamide] | 0.5 to 2 µM | – | –
6 | 0.011 µM | CNC(=O)Nc1ccc2c(c1)CC[C@@]21OC(=O)N(CC(=O)N2[C@@H](C)CC[C@H]2C2CCC(F)(F)CC2)C1=O [Example 209, 1-((R)-3′-(2-((2S,5S)-2-(4,4-difluorocyclohexyl)-5-methylpyrrolidin-1-yl)-2-oxoethyl)-2′,4′-dioxo-2,3-dihydrospiro[indene-1,5′-oxazolidine]-5-yl)-3-methylurea] | ≤ 0.5 µM | – | ≤ 0.5 µM
7 | 0.013 µM | CNC(=O)Nc1ccc2c(c1)CC[C@@]21OC(=O)N(CC(=O)N2[C@@H](C)CC[C@H]2c2ccc(F)c(Cl)c2)C1=O [Example 213, 1-((R)-3′-(2-((2S,5S)-2-(3-chloro-4-fluorophenyl)-5-methylpyrrolidin-1-yl)-2-oxoethyl)-2′,4′-dioxo-2,3-dihydrospiro[indene-1,5′-oxazolidine]-5-yl)-3-methylurea] | – | ≤ 0.5 µM | ≤ 0.5 µM
8 | 0.0055 µM | CNC(=O)Nc1ccc2c(c1)CC[C@@]21OC(=O)N(CC(=O)N2[C@@H](C)CC[C@H]2c2ccc(F)cc2F)C1=O [Example 217, 1-((R)-3′-(2-((2S,5S)-2-(2,4-difluorophenyl)-5-methylpyrrolidin-1-yl)-2-oxoethyl)-2′,4′-dioxo-2,3-dihydrospiro[indene-1,5′-oxazolidine]-5-yl)-3-methylurea] | ≤ 0.5 µM | – | ≤ 0.5 µM
9 | 0.067 µM | CNC(=O)Nc1ccc2c(c1)CC[C@@]21OC(=O)N(CC(=O)N2CCC[C@H]2c2ccccc2)C1=O [Example 225, 1-((R)-2′,4′-dioxo-3′-(2-oxo-2-((S)-2-phenylpyrrolidin-1-yl)ethyl)-2,3-dihydrospiro[indene-1,5′-oxazolidine]-5-yl)-3-methylurea] | 0.5 to 2 µM | – | –
10 | 0.084 µM | CNC(=O)Nc1ccc2c(c1)CC[C@@]21OC(=O)N(CC(=O)N2CCCC2c2ccccc2OC)C1=O (stereo partly drawn) [Example 319, 1-((1R)-3′-(2-(2-(2-methoxyphenyl)pyrrolidin-1-yl)-2-oxoethyl)-2′,4′-dioxo-2,3-dihydrospiro[indene-1,5′-oxazolidine]-5-yl)-3-methylurea] | > 2 µM | – | –
11 | 0.033 µM | CNC(=O)Nc1ccc2c(c1)CC[C@@]21OC(=O)N(CC(=O)N2C(C)CCC2c2ccc(OC)cc2)C1=O (stereo partly drawn) [Example 350, 1-((1R)-3′-(2-(2-(4-methoxyphenyl)-5-methylpyrrolidin-1-yl)-2-oxoethyl)-2′,4′-dioxo-2,3-dihydrospiro[indene-1,5′-oxazolidine]-5-yl)-3-methylurea] | 0.5 to 2 µM | – | –
12 | 0.015 µM | CNC(=O)Nc1ccc2c(c1)CC[C@@]21OC(=O)N(CC(=O)N2[C@@H](COC)CC[C@H]2c2ccc(F)cc2)C1=O [Example 362, 1-(3′-(2-((2S,5R)-2-(4-fluorophenyl)-5-(methoxymethyl)pyrrolidin-1-yl)-2-oxoethyl)-2′,4′-dioxo-2,3-dihydrospiro[indene-1,5′-oxazolidine]-5-yl)-3-methylurea] | ≤ 0.5 µM | – | ≤ 0.5 µM
13 | 0.103 µM | CNC(=O)Nc1ccc2c(c1)CC[C@@]21OC(=O)N(CC(=O)N2C(c3ccc(F)cc3F)CC[C@@H]2C)C1=O (stereo partly drawn) [Example 370, 1-((R)-3′-(2-((5S)-2-(2,4-difluorophenyl)-5-methylpyrrolidin-1-yl)-2-oxoethyl)-2′,4′-dioxo-2,3-dihydrospiro[indene-1,5′-oxazolidine]-5-yl)-3-methylurea] | > 2 µM | – | –
14 | 0.0031 µM | C[C@H]1CC[C@@H](c2ccc(F)cc2)N1C(=O)CN1C(=O)O[C@@]2(CCc3cc(NC(=O)NC4CC4)ccc32)C1=O [Example 371, 1-((R)-3′-(2-((2S,5S)-2-(4-fluorophenyl)-5-methylpyrrolidin-1-yl)-2-oxoethyl)-2′,4′dioxo-2,3-dihydrospiro[indene-1,5-oxazolidine]-5-yl)-3-cyclopropylurea] | 0.5 to 2 µM | – | –

Row | Compound | IC50 (histone acetylase p300) | IC50 (CWR22RV1 cells; [1]) | IC50 (CWR22RV1 cells; [2]) | IC50 (CWR22RV1 cells; [3])
15 | CC(=O)Nc1ccc2c(c1)CC[C@@]21OC(=O)N(CC(=O)N2[C@@H](C)CC[C@H]2c2ccc(F)cc2)C1=O [Example 114, N—((R)-3′-(2-((2S,5S)-2-(4-fluorophenyl)-5-methylpyrrolidin-1-yl)-2-oxoethyl)-2′,4′-dioxo-2,3-dihydrospiro[indene-1,5′-oxazolidine]-5-yl)acetamide] | 0.026 µM | 0.5 to 2 µM | – | –
16 | COC(=O)Nc1ccc2c(c1)CC[C@@]21OC(=O)N(CC(=O)N2[C@@H](C)CC[C@H]2c2ccc(F)cc2)C1=O [Example 115, ((R)-3′-(2-((2S,5S)-2-(4-fluorophenyl)-5-methylpyrrolidin-1-yl)-2-oxoethyl)-2′,4′-dioxo-2,3-dihydrospiro[indene-1,5′-oxazolidine]-5-yl)carbamic acid methyl ester] | 0.064 µM | > 2 µM | – | –
